Assay results as given in article PMC10510102, “Efficient Ligand Discovery Using Sulfur(VI) Fluoride Reactive Fragments” (ACS Chemical Biology, 2023).

Target: BCL6 BTB/POZ domain (Homo sapiens, UniProt P41182, C67R/C84N/C8Q)
Experiment: Conventional differential scanning fluorimetry (DSF)
Assay type: binding
Design: hBCL6-Flag 3Cmut (5-129) produced in house; FLAG (C); made in house
Details: for Tm: 10 μM protein, covalent complex (500 μM SF, 6 or 24 h) or 200 μM GSK137, mean ± SD, three replicates; for ΔTm: relative to unmodified BCL6
Experimental: We subsequently analyzed protein-fragment interactions using differential scanning fluorimetry (DSF) to explore the impact of these binding events on protein stability.[45] […] […]; this illustrates the impact of covalent modification on protein–ligand binding. […]
8.2. Conventional differential scanning fluorimetry (DSF)
BCL6-SF covalent complex preparation:
SFs 2f–i, 2p, 2q, 2s, and 2t in DMSO-d 6 (200 mM stock) or pure DMSO-d 6 were added to crystallizable BCL6 BTB/POZ domain (10 µM) in 20 mM Tris pH 8.5 and 200 mM NaCl. The reactions were incubated at 20 °C for 6 h (meta-substituted benzamide fragments) or 24 h (azetidinyl/piperidinyl fragments). Final concentrations: 10 µM protein, 500 µM SF, DMSO 0.25% v/v in 200 µL. Unreacted compound and DMSO-d 6 were removed by buffer-exchanging protein solutions into 20 mM Tris pH 8.5, 200 mM NaCl and 5% v/v glycerol inside Vivaspin 500 PES Centrifugal Concentration units. The protein was concentrated to 0.6–1.3 mg/mL within the units, according to UV-vis absorption spectrophotometry via a Nanodrop ND-1000 instrument. Protein was flash frozen using a dry ice/ethanol bath prior to […]
Differential scanning fluorimetry assay:
GSK137 (40 mM stock) or pure DMSO-d 6 were added to crystallizable BCL6 BTB/POZ domain (11 µM) in 20 mM Tris pH 8.5, 200 mM NaCl and 5% v/v glycerol to give solutions containing: 11 µM protein, DMSO 0.63% v/v and 222 µM GSK137 (where applicable).
Concentrated protein-SF complexes were also thawed and diluted to 11 µM in 20 mM Tris pH 8.5, […] and 5% v/v glycerol.
SYPRO Orange dye (Invitrogen S6650) in extra dilution buffer (50×, eq. 1% v/v DMSO) was added to give assay-ready solutions with final concentrations: 10 µM protein, SYPRO 5×, DMSO 0.1% v/v in volume 80 µL for the protein-SF covalent complexes or 10 µM protein, SYPRO 5×, DMSO 0.6% v/v in volume 100 µL with and without 200 µM GSK137.
Each solution was aliquoted (3 × 20 µL) into wells of an opaque 384-well PCR microplate (Axygen PCR-384-LC480-W) and coated with silicone oil DC 200 (5 µL; Fluka Chemicals 85413). The microplate was centrifuged (1 min, 200 g) prior to insertion into a Fluodia T70 spectrophotometer (Photal Instruments). The fluorescence intensity was detected (emission wavelength: […]) as the plate instrument interior was heated from 27–75 °C using a temperature stepping mode (waiting time before measurement: 60 s; fluorescence measurement interval: 45 s). The approximate temperature gradient was 0.5 °C min-1.
The fluorescence intensity data from the individual replicates of each sample type were normalized and identically truncated within GraphPad Prism 5.0.4.11 These values were subsequently fitted to equation (4) corresponding to a Boltzmann sigmoid in order to obtain the melting temperature (“V50”; T m) of the protein:
Y=BOTTOM+((TOP+BOTTOM)/(1+exp((V50–X)/SLOPE))) (4)
The three obtained T m values were averaged to give a final T m value in each case. The normalized fluorescence data for the three replicates of each sample were averaged to yield a single dataset for each case, which were then plotted in GraphPad Prism 5.0.4 to give the plots shown in the manuscript.11
Table S9. Thermal melting temperatures of unmodified and covalently modified BCL6 BTB/POZ domain as determined by differential scanning fluorimetry measurements.
The arithmetic mean and standard deviation from three replicates are shown.
Hit Chemotype Protein Species Tm / °C ΔT m / °C […]
meta-Substituted Benzamide BCL6 + 2g 70.4 ± 0.3 +11.7
Azetidinyl Fragments BCL6 + 2h 55.5 ± 0.1 −3.2 […]
8.3. Protocol for kinetic analyzes (BCL6)
The (resynthesized and purified) SF hits (2f–i) were plated into seven Greiner 384 white low volume plate from a 10 mM source in DMSO. Differing volumes were added such that the final concentrations for each compound would be: 100, 50, 20, 10, or 5 µM after adding 15 µL of protein stock solution per well. […]

Compound: CN(C)C(=O)Nc1cccc(CNC(=O)Cc2ccc(S(=O)(=O)F)cc2)c1 [2f]
- Tm: 66.6 ± 0.3 °C
- ΔTm: +7.9 °C

Compound: CC(=O)Nc1cccc(CNC(=O)Cc2ccc(S(=O)(=O)F)cc2)c1 [2g]
- Tm: 70.4 ± 0.3 °C
- ΔTm: +11.7 °C

Compound: O=C(Cc1ccc(S(=O)(=O)F)cc1)N1CC(Oc2ccc(F)c(F)c2)C1 [2h]
- Tm: 55.5 ± 0.1 °C
- ΔTm: −3.2 °C

Compound: NC(=O)c1ccccc1OC1CN(C(=O)Cc2ccc(S(=O)(=O)F)cc2)C1 [2i]
- Tm: 59.9 ± 0.4 °C
- ΔTm: +1.2 °C
